Results as given in ChEMBL document CHEMBL1127962, “Investigation of the effects of synthetic, non-cytotoxic immunophilin inhibitors on MDR” (1994).

What was measured:
[1] = system: KB; test: In vitro reversal of multidrug resistance (MDR) in human carcinoma cell line; type: functional
[2] = target: Peptidyl-prolyl cis-trans isomerase FKBP1A (Homo sapiens) (UniProt P62942); test: In vitro inhibition of non-cytotoxic immunophilin FK506 binding protein activity
Peptidyl-prolyl cis-trans isomerase FKBP1A (Homo sapiens), sequence (P62942 whole entry): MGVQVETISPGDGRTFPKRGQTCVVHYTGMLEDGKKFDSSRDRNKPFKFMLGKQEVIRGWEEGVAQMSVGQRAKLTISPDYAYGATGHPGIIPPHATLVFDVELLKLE

| SMILES | Activity [1] [µM] | Activity [2] [µM] |
| --- | --- | --- |
| C=CCC(CC(C)C[C@H](C)C[C@H](OC)C1OC(O)(C(=O)C(=O)N2CCCCC2)[C@H](C)C[C@@H]1OC)C(=O)C[C@H](O)[C@@H](C)[C@H](OC(C)=O)C(C)CC1CC[C@@H](O)C(OC)C1 (some centres undefined) | 5 | 0.001 |
| COc1cccc(C(=O)CN2CCCCC2C(=O)N[C@@H](Cc2ccccc2)C(=O)N[C@H](/C=C/COC(=O)C(F)(F)F)C(C)C)c1 (some centres undefined) | 49 | 1 |
| C#C[C@@H](NC(=O)[C@H](Cc1ccccc1)NC(=O)C1CCCCN1CC(=O)c1cccc(OC)c1)C(C)C (some centres undefined) | 11 | 5 |
| CC(C)[C@H](NC(=O)[C@H](Cc1ccccc1)NC(=O)C1CCCCN1CC(=O)c1ccc2ccccc2c1)C(=O)OC(C)(C)C (some centres undefined) | 5 | 1 |
| COC(=O)[C@H](Cc1ccccc1)NC(=O)[C@@H](NC(=O)[C@H](Cc1ccccc1)NC(=O)C1CCCCN1CC(=O)c1ccc2ccccc2c1)C(C)C (some centres undefined) | >50 | 0.3 |
| CCC(C)C[C@H](NC(=O)C1CCCCN1CC(=O)c1cccc(OC)c1)C(=O)OC(C)(C)C (some centres undefined) | >50 | 8 |
| COC(=O)[C@H](Cc1ccccc1)NC(=O)[C@@H](NC(=O)[C@H](Cc1ccccc1)NC(=O)C1CCCCN1CC(=O)c1cccc(OC)c1)C(C)C (some centres undefined) | >50 | 1 |
| C=CCOC/C=C/[C@@H](NC(=O)[C@H](Cc1ccccc1)NC(=O)C1CCCCN1CC(=O)c1cccc(OC)c1)C(C)C (some centres undefined) | 6 | 3 |
| COc1cccc(C(=O)CN2CCCCC2C(=O)N[C@@H](Cc2ccccc2)C(=O)OC(C)(C)C)c1 (some centres undefined) | >50 | 3 |
| COc1cccc(C(=O)CN2CCCCC2C(=O)N[C@@H](Cc2ccccc2)C(=O)N[C@H](/C=C/COC(C)=O)C(C)C)c1 (some centres undefined) | >50 | 2 |
| COC(=O)C(=O)N1CCCC1C(=O)N[C@@H](Cc1ccccc1)C(=O)OC(C)(C)C (some centres undefined) | >50 | > 50 |
| COc1cccc(C(=O)CN2CCCCC2C(=O)N[C@@H](Cc2ccccc2)C(=O)N[C@H](C(=O)OC(C)(C)C)C(C)C)c1 (some centres undefined) | 6 | 3 |
| COc1cccc(C(=O)CN2CCCCC2C(=O)N[C@@H](Cc2ccccc2)C(=O)N[C@@H](CC(C)C)C(=O)OC(C)(C)C)c1 (some centres undefined) | 7 | 6 |
| C[C@H](/C=C/c1ccc(C(=O)C(=O)N2CCCC2C(=O)N[C@@H](CC2CCCCC2)C(=O)OC(C)(C)C)s1)CO (some centres undefined) | 13 | > 100 |
| C[C@H](/C=C/c1ccc(C(=O)C(=O)N2CCCC2C(=O)N[C@@H](Cc2ccccc2)C(=O)OC(C)(C)C)s1)CO (some centres undefined) | >50 | 100 |
| C[C@H](/C=C/c1ccc(C(=O)C(=O)N2CCCC2C(=O)OC(C)(C)C)s1)CO (some centres undefined) | >50 | > 100 |
| COc1cccc(C(=O)CN2CCCCC2C(=O)N[C@@H](Cc2ccccc2)C(=O)N[C@H](/C=C/I)C(C)C)c1 (some centres undefined) | 30 | 2 |
